According to paper PMC10572855, “Phenotypic Test of Benzo[4,5]imidazo[1,2-c]pyrimidinone-Based Nucleoside and Non-Nucleoside Derivatives against DNA and RNA Viruses, Including Coronaviruses” (International Journal of Molecular Sciences, 2023):
Like-named read-outs stand apart in the source and are kept apart here.

Key:
[1] = system: RSV (Long); assay: Cytopathic effect reduction, RSV (Long); assay type: cell-based, Respiratory syncytial virus; conditions: reduction of virus-induced cytopathic effect by 50%, virus input 100 TCID50, read-out: Antiviral Activity (EC50) RSV Long
[2] = system: HEL299 cells; assay: Cytotoxicity in HEL299 cells, MTS assay; assay type: cell-based, Human; conditions: cell growth reduced by 50%
Experimental: (§1) Cells were seeded at a rate of 5 × 10^3 cells/well into 96-well plates and allowed to proliferate for 24 h. Then, a medium containing different concentrations of the test compounds, starting at 100 mM, was added. After 3 days of incubation at 37 °C, the cell count was determined with a Beckman Coulter counter or, alternatively, cell viability was determined with the colorimetric formazan-based MTS assay. […] The cytotoxic effects of the compounds were also assessed by evaluating the MCC (minimum cytotoxic concentration that causes a microscopically detectable alteration of cell morphology).

[3] = system: HCoV OC43; assay: Cytopathic effect reduction, HCoV OC43; assay type: cell-based, Human coronavirus OC43; conditions: reduction of virus-induced cytopathic effect by 50%, virus input 100 TCID50, read-out: Antiviral Activity (EC50) HCoV OC43
[4] = system: Huh7 cells; assay: Cytotoxicity in Huh7 cells, MTS assay; assay type: cell-based, Human; conditions: cell growth reduced by 50%
Experimental: as §1

[5] = system: HCoV NL63; assay: Cytopathic effect reduction, HCoV NL63; assay type: cell-based, Human coronavirus NL63; conditions: reduction of virus-induced cytopathic effect by 50%, virus input 100 TCID50, read-out: Antiviral Activity (EC50) HCoV NL63
[6] = system: HCoV 229E; assay: Cytopathic effect reduction, HCoV 229E; assay type: cell-based, Human coronavirus 229E; conditions: reduction of virus-induced cytopathic effect by 50%, virus input 100 TCID50, read-out: Antiviral Activity (EC50) HCoV 229E
[7] = Cytotoxicity in HEL299 cells, MTS assay; assay type: cell-based, Human; conditions: human, HEL299 cells, cell growth reduced by 50%
Experimental: as §1

[8] = Cytotoxicity in Huh7 cells, MTS assay; assay type: cell-based, Human; conditions: human, Huh7 cells, cell growth reduced by 50%
Experimental: as §1

[9] = human respiratory syncytial virus

Row | Structure (SMILES) | EC50 [1] [µM] | CC50 [2] [µM] | EC50 [3] [µM] | CC50 [4] [µM] | EC50 [5] [µM] | EC50 [6] [µM] | EC50 [1, 9] [µM] | CC50 at 3 days [7] [µM] | EC50 ([3]; Betacoronavirus 1, OC43) [µM] | CC50 at 3 days [8] [µM] | EC50 ([5]; Human coronavirus NL63) [µM] | EC50 ([6]; Human coronavirus 229E) [µM]
1 | CCCCCCCCOc1ccc2c(c1)nc1ccn([C@H]3C[C@H](O)[C@@H](COC(c4ccccc4)(c4ccc(OC)cc4)c4ccc(OC)cc4)O3)c(=O)n12 [Compound 4c, 2-((2R,4S,5R)-5-((bis(4-methoxyphenyl)(phenyl)methoxy)methyl)-4-hydroxytetrahydrofuran-2-yl)-7-(octyloxy)benzo[4,5]imidazo[1,2-c]pyrimidin-1(2H)-one] | > 100 | > 40 | > 100 | > 100 | > 100 | > 100 | – | – | – | – | – | –
2 | CCCCCCOc1ccc2c(c1)nc1ccn([C@H]3C[C@H](O)[C@@H](COC(c4ccccc4)(c4ccc(OC)cc4)c4ccc(OC)cc4)O3)c(=O)n12 [Compound 4b, 2-((2R,4S,5R)-5-((bis(4-methoxyphenyl)(phenyl)methoxy)methyl)-4-hydroxytetrahydrofuran-2-yl)-7-(hexyloxy)benzo[4,5]imidazo[1,2-c]pyrimidin-1(2H)-one] | > 100 | > 100 | > 100 | > 100 | > 100 | > 100 | – | – | – | – | – | –
3 | CCCCCCCCCCCCOc1ccc2c(c1)nc1ccn([C@@H]3O[C@H](COC(c4ccccc4)(c4ccc(OC)cc4)c4ccc(OC)cc4)[C@@H](O)[C@H]3O)c(=O)n12 [Compound 5e, 2-((2R,3R,4S,5R)-5-((bis(4-methoxyphenyl)(phenyl)methoxy)methyl)-3,4-dihydroxytetrahydrofuran-2-yl)-7-(dodecyloxy)benzo[4,5]imidazo[1,2-c]pyrimidin-1(2H)-one] | > 100 | > 100 | > 100 | > 40 | > 100 | > 100 | – | – | – | – | – | –
4 | CCCCOc1ccc2c(c1)nc1ccn([C@@H]3O[C@H](COC(c4ccccc4)(c4ccc(OC)cc4)c4ccc(OC)cc4)[C@@H](O)[C@H]3O)c(=O)n12 [Compound 5a, 2-((2R,3R,4S,5R)-5-((bis(4-methoxyphenyl)(phenyl)methoxy)methyl)-3,4-dihydroxytetrahydrofuran-2-yl)-7-butoxybenzo[4,5]imidazo[1,2-c]pyrimidin-1(2H)-one] | > 100 | > 100 | > 100 | > 100 | > 100 | > 100 | – | – | – | – | – | –
5 | O=c1n([C@@H]2O[C@H](CO)[C@@H](O)[C@H]2O)ccc2nc3cc(O)ccc3n12 [Compound 2b, 2-((2R,3R,4S,5R)-3,4-dihydroxy-5-(hydroxymethyl)tetrahydrofuran-2-yl)-7-hydroxybenzo[4,5]imidazo[1,2-c]pyrimidin-1(2H)-one] | – | – | – | – | – | – | > 100 | > 100 | > 100 | > 100 | > 100 | > 100
6 | CCCCCCOc1ccc2c(c1)nc1cc[nH]c(=O)n12 [Compound 6b, 7-(hexyloxy)benzo[4,5]imidazo[1,2-c]pyrimidin-1(2H)-one] | – | – | – | – | – | – | > 100 | > 100 | > 100 | > 100 | > 100 | > 100
7 | CCCCOc1ccc2c(c1)nc1cc[nH]c(=O)n12 [Compound 6a, 7-butoxybenzo[4,5]imidazo[1,2-c]pyrimidin-1(2H)-one] | – | – | – | – | – | – | > 100 | > 100 | > 100 | > 100 | > 100 | > 100
8 | O=c1n([C@H]2C[C@H](O)[C@@H](CO)O2)ccc2nc3cc(O)ccc3n12 [Compound 2a, 7-hydroxy-2-((2R,4S,5R)-4-hydroxy-5-(hydroxymethyl)tetrahydrofuran-2-yl)benzo[4,5]imidazo[1,2-c]pyrimidin-1(2H)-one] | – | – | – | – | – | – | > 100 | > 100 | > 100 | > 100 | > 100 | > 100
9 | CCCCCCCCCCOc1ccc2c(c1)nc1ccn([C@@H]3O[C@H](COC(c4ccccc4)(c4ccc(OC)cc4)c4ccc(OC)cc4)[C@@H](O)[C@H]3O)c(=O)n12 [Compound 5d, 2-((2R,3R,4S,5R)-5-((bis(4-methoxyphenyl)(phenyl)methoxy)methyl)-3,4-dihydroxytetrahydrofuran-2-yl)-7-(decyloxy)benzo[4,5]imidazo[1,2-c]pyrimidin-1(2H)-one] | > 100 | > 100 | > 100 | > 100 | > 100 | > 100 | – | – | – | – | – | –
10 | CCCCOc1ccc2c(c1)nc1ccn([C@H]3C[C@H](O)[C@@H](COC(c4ccccc4)(c4ccc(OC)cc4)c4ccc(OC)cc4)O3)c(=O)n12 [Compound 4a, 2-((2R,4S,5R)-5-((bis(4-methoxyphenyl)(phenyl)methoxy)methyl)-4-hydroxytetrahydrofuran-2-yl)-7-butoxybenzo[4,5]imidazo[1,2-c]pyrimidin-1(2H)-one] | > 100 | > 40 | > 100 | > 40 | > 100 | > 100 | – | – | – | – | – | –
11 | CCCCCCCCOc1ccc2c(c1)nc1cc[nH]c(=O)n12 [Compound 6c, 7-(octyloxy)benzo[4,5]imidazo[1,2-c]pyrimidin-1(2H)-one] | – | – | – | – | – | – | > 100 | > 100 | > 100 | > 100 | > 100 | > 100
12 | CCCCCCCCCCOc1ccc2c(c1)nc1ccn([C@H]3C[C@H](O)[C@@H](COC(c4ccccc4)(c4ccc(OC)cc4)c4ccc(OC)cc4)O3)c(=O)n12 [Compound 4d, 2-((2R,4S,5R)-5-((bis(4-methoxyphenyl)(phenyl)methoxy)methyl)-4-hydroxytetrahydrofuran-2-yl)-7-(decyloxy)benzo[4,5]imidazo[1,2-c]pyrimidin-1(2H)-one] | > 100 | > 40 | > 100 | > 40 | > 100 | > 100 | – | – | – | – | – | –
13 | CCCCCCOc1ccc2c(c1)nc1ccn([C@@H]3O[C@H](COC(c4ccccc4)(c4ccc(OC)cc4)c4ccc(OC)cc4)[C@@H](O)[C@H]3O)c(=O)n12 [Compound 5b, 2-((2R,3R,4S,5R)-5-((bis(4-methoxyphenyl)(phenyl)methoxy)methyl)-3,4-dihydroxytetrahydrofuran-2-yl)-7-(hexyloxy)benzo[4,5]imidazo[1,2-c]pyrimidin-1(2H)-one] | > 100 | > 100 | > 50 | > 10 | > 100 | > 100 | – | – | – | – | – | –
14 | CCCCCCCCOc1ccc2c(c1)nc1ccn([C@@H]3O[C@H](COC(c4ccccc4)(c4ccc(OC)cc4)c4ccc(OC)cc4)[C@@H](O)[C@H]3O)c(=O)n12 [Compound 5c, 2-((2R,3R,4S,5R)-5-((bis(4-methoxyphenyl)(phenyl)methoxy)methyl)-3,4-dihydroxytetrahydrofuran-2-yl)-7-(octyloxy)benzo[4,5]imidazo[1,2-c]pyrimidin-1(2H)-one] | > 100 | > 100 | > 100 | > 10 | > 100 | > 100 | – | – | – | – | – | –
15 | CCCCCCCCCCCCOc1ccc2c(c1)nc1ccn([C@H]3C[C@H](O)[C@@H](COC(c4ccccc4)(c4ccc(OC)cc4)c4ccc(OC)cc4)O3)c(=O)n12 [Compound 4e, 2-((2R,4S,5R)-5-((bis(4-methoxyphenyl)(phenyl)methoxy)methyl)-4-hydroxytetrahydrofuran-2-yl)-7-(dodecyloxy)benzo[4,5]imidazo[1,2-c]pyrimidin-1(2H)-one] | > 100 | > 100 | > 100 | > 100 | > 100 | > 100 | – | – | – | – | – | –
